The target of the experiment is T1, Rat IKK-2 (Rattus norvegicus, UniProt Q9QY78).
T1 sequence (Q9QY78 1-757): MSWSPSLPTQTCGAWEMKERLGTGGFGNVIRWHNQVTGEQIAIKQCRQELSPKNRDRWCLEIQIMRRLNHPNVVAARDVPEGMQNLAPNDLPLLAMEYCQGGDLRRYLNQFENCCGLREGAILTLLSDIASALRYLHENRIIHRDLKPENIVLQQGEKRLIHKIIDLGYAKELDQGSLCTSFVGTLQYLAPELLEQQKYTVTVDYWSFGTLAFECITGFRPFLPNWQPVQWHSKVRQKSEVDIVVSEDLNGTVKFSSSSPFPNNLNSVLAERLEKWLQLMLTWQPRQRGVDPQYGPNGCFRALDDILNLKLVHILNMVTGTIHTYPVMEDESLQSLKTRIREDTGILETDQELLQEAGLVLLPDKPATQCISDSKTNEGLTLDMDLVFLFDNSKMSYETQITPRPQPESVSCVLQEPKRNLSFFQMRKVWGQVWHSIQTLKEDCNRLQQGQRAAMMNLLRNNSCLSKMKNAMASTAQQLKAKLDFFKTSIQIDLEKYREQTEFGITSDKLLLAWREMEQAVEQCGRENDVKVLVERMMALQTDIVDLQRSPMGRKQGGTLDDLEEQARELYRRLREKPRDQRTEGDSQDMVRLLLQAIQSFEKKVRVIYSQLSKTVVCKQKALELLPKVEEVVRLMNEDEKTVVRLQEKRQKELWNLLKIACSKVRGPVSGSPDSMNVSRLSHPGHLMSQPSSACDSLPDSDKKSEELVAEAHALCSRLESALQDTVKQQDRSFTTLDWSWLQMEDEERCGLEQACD
The experiment in a line: Rat IKK-2 enzyme assay. It counts as biochemical. As to conditions: read-out: IC50 (μM) rIKK-2.

Data on five compounds can be found in US20050197338A1, “Substituted pyrazole urea compounds for the treatment of inflammation” (priority 2003, published 2005).

By IC50 is commonly meant the concentration at which inhibition is half-maximal.

With `NC(=O)Nc1cn(-c2ccc(S(=O)(=O)C3CCCCC3)cc2)nc1C(N)=O` [Example 192, 1-(3-carbamoyl-1-(4-(cyclohexylsulfonyl)phenyl)-1H-pyrazol-4-yl)urea], the IC50 stood at 0.297 µM.

Regarding `NC(=O)Nc1cn(-c2ccc(-c3ccc(F)cc3O)cc2)nc1C(N)=O` [Example 98, 4-[(aminocarbonyl)amino]-1-(4′-fluoro-2′-hydroxy-1,1′-biphenyl-4-yl)-1H-pyrazole-3-carboxamide], the IC50 came out at 0.668 µM.

`NC(=O)Nc1cn(-c2ccc(Br)cc2)nc1C(N)=O` [Example 19, 1-(1-(4-bromophenyl)-3-carbamoyl-1H-pyrazol-4-yl)urea]: the IC50 was 0.352 µM.

On to `N#CCOc1ccc(F)cc1-c1ccc(-n2cc(NC(N)=O)c(C(N)=O)n2)cc1` [Example 172, 4-[(aminocarbonyl)amino]-1-[2′-(cyanomethoxy)-5′-fluoro-1,1′-biphenyl-4-yl]-1H-pyrazole-3-carboxamide], for which the IC50 stood at 0.033 µM.

For `NC(=O)Nc1cn(-c2ccc(-c3ccc(-c4nnn[nH]4)cc3)cc2)nc1C(N)=O` [Example 187, 4-[(aminocarbonyl)amino]-1-[4′-(1H-tetrazol-5-yl)-1,1′-biphenyl-4-yl]-1H-pyrazole-3-carboxamide], the IC50 amounted to 0.441 µM.
